Structures can show the parent of a compound that is named as a salt.
Experiments:
[1] = system: gravid White New Zealand female rabbits; test: Teratogenicity in gravid White New Zealand rabbits; format: in vivo, rabbit; settings: day 5 to day 18 of gestation; for Affected foetuses, %: normal limit 1.5%
Protocol: The protocol used comprised administering to gravid White New Zealand female rabbits (weighing each about 2900-3000 grams before gestation) a daily dose of 0 (batch of control animals), 5,10 or 50 mg/kg of each product to be tested by gastrogavage from day 5 to day 18 of gestation, then carrying out a cesarean operation on day 29 of gestation in order to enumerate:
(i) the total number of foestuses, and
(ii) the total number of foestuses presenting at least one malformation.
To appreciate the results of such a protocol it must be noted that natural malformations may occur. Statistically, the percentage of foetuses presenting at least one malformation in any control batch of gravid White New Zealand female rabbits is lower than or equal to 1.5% with respect to the total number of foetuses.
To be precise in this protocol a malformation comprises at least one of the following cases: articular limb blocade, anorous foetus, deviated tail, shorter tail, skull deformation, exemcephalia.

CNS = test: Neuropsychopharmacological profile as a whole; format: in vivo, mice and rats; settings: conclusion of the tests
Protocol: In the neuropsychopharmacological study which follows, a solution of CRL 41 153 in distilled water (pH 1.5) was administered intraperitoneally in a volume of 20 ml/kg to male mice and 5 ml/kg to male rats.

[2] = pH of solutions in distilled water; format: physicochemical
Protocol: The neuropsychopharmacological study was undertaken according to the procedures described above for CRL 41 153, CRL 41 213 being adminstered intraperitoneally, in solution in distilled water, in a volume of 20 ml/kg to male mice and a volume of 5 ml/kg to male rats, and the pH of the injected solution varying with the concentration of CRL 41 213 according to the data given in Table II below.

mice = test: Interaction with barbital; format: in vivo, mouse; settings: i.p., barbital 220 mg/kg
Protocol: Half an hour after the administration of CRL 41 153, groups of 10 mice receive an intraperitoneal injection of barbital (220 mg/kg).

Structure (SMILES): CC(C)NCCCC(=O)c1ccc(N)cc1 [A 1, reference compound]
- Affected foetuses, number ([1]; 10 mg/kg daily): 4
- Total foetuses (live) ([1]; 10 mg/kg daily): 87
- Affected foetuses, % ([1]; 10 mg/kg daily): 4.59%

Structure (SMILES): CC(C)(C)NCCCC(=O)c1ccc(N)cc1 [A 2, reference compound]
- Affected foetuses, number ([1]; 10 mg/kg daily): 4
- Total foetuses (live) ([1]; 10 mg/kg daily): 85
- Affected foetuses, % ([1]; 10 mg/kg daily): 4.70%

Structure (SMILES): CC(C)NCCCC(=O)c1cc(Cl)c(N)c(Cl)c1 [A 3, reference compound]
- Affected foetuses, number ([1]; 10 mg/kg daily): 5
- Total foetuses (live) ([1]; 10 mg/kg daily): 82
- Affected foetuses, % ([1]; 10 mg/kg daily): 6.09%

Structure (SMILES): Nc1ccc(C(=O)CCCN2CCCCC2)cc1 [A 5, reference compound]
- Affected foetuses, number ([1]; 5 mg/kg daily): 3
- Total foetuses (live) ([1]; 5 mg/kg daily): 81
- Affected foetuses, % ([1]; 5 mg/kg daily): 3.70%
- Affected foetuses, number ([1]; 10 mg/kg daily): 4
- Total foetuses (live) ([1]; 10 mg/kg daily): 87
- Affected foetuses, % ([1]; 10 mg/kg daily): 4.59%

Structure (SMILES): Nc1ccc(C(=O)CCCN2CCCC2)cc1 [A 6, reference compound]
- Affected foetuses, number ([1]; 5 mg/kg daily): 0
- Total foetuses (live) ([1]; 5 mg/kg daily): 89
- Affected foetuses, % ([1]; 5 mg/kg daily): 0%
- Affected foetuses, number ([1]; 10 mg/kg daily): 5
- Total foetuses (live) ([1]; 10 mg/kg daily): 86
- Affected foetuses, % ([1]; 10 mg/kg daily): 5.81%

Structure (SMILES): CCNCCC(=O)c1ccc(N)cc1 [A 7, reference compound]
- Affected foetuses, number ([1]; 5 mg/kg daily): 1
- Total foetuses (live) ([1]; 5 mg/kg daily): 80
- Affected foetuses, % ([1]; 5 mg/kg daily): 1.25%
- Affected foetuses, number ([1]; 10 mg/kg daily): 4
- Total foetuses (live) ([1]; 10 mg/kg daily): 79
- Affected foetuses, % ([1]; 10 mg/kg daily): 5.06%

Structure (SMILES): CN(C)CCC(=O)c1ccc(N)cc1 [A 8, reference compound]
- Affected foetuses, number ([1]; 10 mg/kg daily): 5
- Total foetuses (live) ([1]; 10 mg/kg daily): 81
- Affected foetuses, % ([1]; 10 mg/kg daily): 6.17%

Structure (SMILES): Nc1ccc(C(=O)CCN2CCOCC2)cc1 [A 9, reference compound]
- Affected foetuses, number ([1]; 5 mg/kg daily): 1
- Total foetuses (live) ([1]; 5 mg/kg daily): 86
- Affected foetuses, % ([1]; 5 mg/kg daily): 1.16%
- Affected foetuses, number ([1]; 10 mg/kg daily): 0
- Total foetuses (live) ([1]; 10 mg/kg daily): 94
- Affected foetuses, % ([1]; 10 mg/kg daily): 0%
- Affected foetuses, number ([1]; 50 mg/kg daily): 6
- Total foetuses (live) ([1]; 50 mg/kg daily): 82
- Affected foetuses, % ([1]; 50 mg/kg daily): 7.31%

Structure (SMILES): Nc1ccc(C(=O)CCN2CCCCC2)cc1 [A 10, reference compound]
- Affected foetuses, number ([1]; 10 mg/kg daily): 4
- Total foetuses (live) ([1]; 10 mg/kg daily): 78
- Affected foetuses, % ([1]; 10 mg/kg daily): 5.12%

Structure (SMILES): CN1CCN(CCC(=O)c2ccc(N)cc2)CC1 [A 11, reference compound]
- Affected foetuses, number ([1]; 10 mg/kg daily): 6
- Total foetuses (live) ([1]; 10 mg/kg daily): 80
- Affected foetuses, % ([1]; 10 mg/kg daily): 7.50%

Structure (SMILES): Nc1ccc(C(=O)CCNC2CC2)cc1 [A 12, reference compound]
- Affected foetuses, number ([1]; 5 mg/kg daily): 2
- Total foetuses (live) ([1]; 5 mg/kg daily): 75
- Affected foetuses, % ([1]; 5 mg/kg daily): 2.66%

Structure (SMILES): Nc1ccc(C(=O)CCN2CCSCC2)cc1 [A 13, reference compound]
- Affected foetuses, number ([1]; 10 mg/kg daily): 12
- Total foetuses (live) ([1]; 10 mg/kg daily): 43
- Affected foetuses, % ([1]; 10 mg/kg daily): 27.90%

Structure (SMILES): CC(C)NCC(=O)c1ccc(N)cc1 [A 14, reference compound]
- Affected foetuses, number ([1]; 10 mg/kg daily): 3
- Total foetuses (live) ([1]; 10 mg/kg daily): 76
- Affected foetuses, % ([1]; 10 mg/kg daily): 3.94%

Structure (SMILES): CC(C)NCC(=O)c1cccc(N)c1 [A 15, reference compound]
- Affected foetuses, number ([1]; 10 mg/kg daily): 14
- Total foetuses (live) ([1]; 10 mg/kg daily): 52
- Affected foetuses, % ([1]; 10 mg/kg daily): 26.92%

Structure (SMILES): Nc1ccc(C(=O)CN2CCOCC2)cc1 [A 16, 1-(4-aminophenyl)-2-morpholinylethanone, reference compound]
- Affected foetuses, number ([1]; 5 mg/kg daily): 3
- Total foetuses (live) ([1]; 5 mg/kg daily): 81
- Affected foetuses, % ([1]; 5 mg/kg daily): 3.70%
- Affected foetuses, number ([1]; 10 mg/kg daily): 13
- Total foetuses (live) ([1]; 10 mg/kg daily): 50
- Affected foetuses, % ([1]; 10 mg/kg daily): 26.0%

Structure (SMILES): Nc1cccc(C(=O)CN2CCOCC2)c1 [A 17, reference compound]
- Affected foetuses, number ([1]; 5 mg/kg daily): 2
- Total foetuses (live) ([1]; 5 mg/kg daily): 77
- Affected foetuses, % ([1]; 5 mg/kg daily): 2.59%
- Affected foetuses, number ([1]; 10 mg/kg daily): 11
- Total foetuses (live) ([1]; 10 mg/kg daily): 46
- Affected foetuses, % ([1]; 10 mg/kg daily): 23.91%

Structure (SMILES): Nc1ccc(C(=O)CN2CCCCC2)cc1 [A 18, reference compound]
- Affected foetuses, number ([1]; 5 mg/kg daily): 4
- Total foetuses (live) ([1]; 5 mg/kg daily): 80
- Affected foetuses, % ([1]; 5 mg/kg daily): 5.0%
- Affected foetuses, number ([1]; 10 mg/kg daily): 10
- Total foetuses (live) ([1]; 10 mg/kg daily): 51
- Affected foetuses, % ([1]; 10 mg/kg daily): 19.60%

Structure (SMILES): Nc1cccc(C(=O)CN2CCCCC2)c1 [A 19, reference compound]
- Affected foetuses, number ([1]; 10 mg/kg daily): 3
- Total foetuses (live) ([1]; 10 mg/kg daily): 62
- Affected foetuses, % ([1]; 10 mg/kg daily): 4.83%

Structure (SMILES): Nc1ccc(C(=O)CN2CCCC2)cc1 [A 20, reference compound]
- Affected foetuses, number ([1]; 10 mg/kg daily): 5
- Total foetuses (live) ([1]; 10 mg/kg daily): 74
- Affected foetuses, % ([1]; 10 mg/kg daily): 8.10%

Structure (SMILES): Nc1cccc(C(=O)CN2CCCC2)c1 [A 21, reference compound]
- Affected foetuses, number ([1]; 10 mg/kg daily): 4
- Total foetuses (live) ([1]; 10 mg/kg daily): 78
- Affected foetuses, % ([1]; 10 mg/kg daily): 5.12%

Structure (SMILES): CCC1CCCCN1C(C)C(=O)c1ccc(N)c(Br)c1 (stereo not drawn) [A 22, 1-(4-amino-3-bromophenyl)2-(2-ethylpiperidino)propanone, reference compound]
- Affected foetuses, number ([1]; 10 mg/kg daily): 13
- Total foetuses (live) ([1]; 10 mg/kg daily): 46
- Affected foetuses, % ([1]; 10 mg/kg daily): 28.26%

Structure (SMILES): CC(C(=O)c1ccc(N)cc1)N1CCN(C)CC1 (stereo not drawn) [CRL 41 243]
- Affected foetuses, number ([1]; 50 mg/kg daily): 0
- Total foetuses (live) ([1]; 50 mg/kg daily): 87
- Affected foetuses, % ([1]; 50 mg/kg daily): 0%
- Antidepressant effects (overall) (CNS): modest antidepressant effects
- Sedative effects (overall) (CNS): moderate sedative effects
- pH ([2]; 0.1 g/liter in distilled water): 5.0
- pH ([2]; 0.2 g/liter in distilled water): 4.5
- pH ([2]; 0.4 g/liter in distilled water): 4.0
- pH ([2]; 0.8 g/liter in distilled water): 3.5
- pH ([2]; 3.2 g/liter in distilled water): 2.5
- pH ([2]; 6.4 g/liter in distilled water): 2.0
- pH ([2]; 25 g/liter in distilled water): 1.5
- pH ([2]; 50 g/liter in distilled water): 1.0
- pH ([2]; ≤0.05 g/liter in distilled water): 5.5
- Duration of the sleep induced by barbital (mice): at strong doses reduces the duration of the sleep induced by barbital

Structure (SMILES): CC(C)NC(C)C(=O)c1cccc(N)c1 (stereo not drawn) [CRL 41 255]
- Affected foetuses, number ([1]; 10 mg/kg daily): 1
- Total foetuses (live) ([1]; 10 mg/kg daily): 89
- Affected foetuses, % ([1]; 10 mg/kg daily): 1.12%

Structure (SMILES): CC(C(=O)c1cccc(N)c1)N(C)C (stereo not drawn) [CRL 41 260]
- Affected foetuses, number ([1]; 10 mg/kg daily): 1
- Total foetuses (live) ([1]; 10 mg/kg daily): 87
- Affected foetuses, % ([1]; 10 mg/kg daily): 1.14%

Structure (SMILES): CC(C(=O)c1cccc(N)c1)N1CCCCC1 (stereo not drawn) [CRL 41 263, 1-(3-aminophenyl)-2-piperidinopropanone dihydrochloride]
- Affected foetuses, number ([1]; 10 mg/kg daily): 0
- Total foetuses (live) ([1]; 10 mg/kg daily): 92
- Affected foetuses, % ([1]; 10 mg/kg daily): 0%

Structure (SMILES): CC(C(=O)c1cccc(N)c1)N1CCOCC1 (stereo not drawn) [CRL 41 268]
- Affected foetuses, number ([1]; 10 mg/kg daily): 1
- Total foetuses (live) ([1]; 10 mg/kg daily): 91
- Affected foetuses, % ([1]; 10 mg/kg daily): 1.11%

Structure (SMILES): CCCNC(C)C(=O)c1cccc(N)c1 (stereo not drawn) [CRL 41 278]
- Affected foetuses, number ([1]; 10 mg/kg daily): 1
- Total foetuses (live) ([1]; 10 mg/kg daily): 92
- Affected foetuses, % ([1]; 10 mg/kg daily): 1.08%

Reference: patent US4980377A, “1-(aminophenyl)-2-aminopropanone derivatives” (Laboratoire L. Lafon, priority 1984, dated 1990)
